In patent US11752125B2, “Anti-neuroinflammatory and protective compounds in Achillea fragrantissima” (THE STATE OF ISRAEL MINISTRY OF AGRICULTURE & RURAL …, priority 2013, dated 2023):

Assays:
[1] = test system: MEK1; assay: H2O2-induced MEK1 phosphorylation in astrocytes (ELISA); format: cell-based, rat; conditions: H2O2 175 μM 40 min; for effect on H2O2-induced phosphorylation of MEK1: astrocytes preincubated 2 h
Experimental: Astrocytes were treated with TTF 2 h before the addition of H2O2. Cells were lysed 40 minutes after the addition of H2O2 in lysis buffer supplied by PathScan sandwich ELISA kit (Cell Signaling TECHNOLOGY) according to the manufacturer's protocol. Protein concentrations in cell lysates were determined by Bradford reagent (Bio-Rad, Hercules, Calif.), and equal amounts of proteins were subjected to ELISA. To measure the amount of total and phosphoSAPK/JNK in cell lysates of astrocytes, ELISA was performed according to the manufacturer's protocol using the PathScan total SAPK/JNK sandwich ELISA kit (Cell Signaling TECHNOLOGY) and the PathScan phospho-SAPK/JNK (Thr183/Tyr185) sandwich ELISA kit (Cell Signaling TECHNOLOGY), respectively. To measure the amount of total and phospho-ERK 1/2 (i.e. phospho-p44/42 MAPK) in cell lysates of astrocytes, ELISA was performed according to the manufacturer's protocol using the PathScan total p44/42 MAPK (ERK 1/2) sandwich ELISA kit (Cell Signaling TECHNOLOGY) and the PathScan phospho-p44/42 MAPK (Thr202/Tyr204) sandwich ELISA kit (Cell Signaling TECHNOLOGY), respectively. To measure the amount of total and phospho-MEK1 in cell lysates of astrocytes, ELISA was performed according to the manufacturer's protocol using the PathScan total MEK1 sandwich ELISA kit (Cell Signaling TECHNOLOGY) and the PathScan phospho-MEK1 (Ser217/221) sandwich ELISA kit (Cell Signaling TECHNOLOGY), respectively. […] The optical density was determined at 450 nm using a microplate reader.
1. […] Determine the optical density at 450 nm using a microplate reader.
Astrocytes were treated with 175 μM of H2O2 for 40 min following preincubation with TTF for 2 h. The levels of phosphorylated and total SAPK/JNK (FIG. 3A), MEK1 (FIG. 3B) and ERK 1/2 (FIG. 3C) were measured by ELISA. […]

[2] = Hydrogen peroxide scavenging activity (A230); conditions: for H2O2 scavenging ability: 1 mM H2O2 in PBS, 10 min; for H2O2 scavenged: 8 μM compound; for H2O2 scavenged / H2O2 scavenging ability at higher concentrations: 1 mM H2O2, 10 min; for H2O2 scavenging ability at higher concentrations: up to 32 μM compound
Experimental: The scavenging of H2O2 was determined by the method of Ruch et al. Carcinogenesis. 1989 June; 10(6):1003-8, using 1 mM instead of 4 mM H2O2. A 1 mM solution of H2O2 was prepared in PBS and was incubated with different concentrations of TTF, quercetin or memantine. Absorbance (A230) was determined spectrophotometrically 10 min later against blank solutions containing TTF, quercetin or memantine in PBS without H2O2.
For assessment of H2O2 scavenging activity, 1 mM H2O2 and different concentrations of TTF, quercetin or memantine were co-incubated in PBS. Optical density was measured 10 min later. The results are shown in FIG. 6 and are means±SEM of two experiments performed in duplicates (n=4). **P<0.01, ***P<0.001, compared to H2O2 in the absence of TTF.
For […] of H2O2 scavenging activity, 1 mM H2O2 and different concentrations of achillolide A, quercetin or memantine were co-incubated in PBS. Optical density was measured 10 min later. The results are means±SEM of two experiments performed in duplicates (n=4). **P<0.01, ***P<0.001, compared to H2O2 in the absence of compound Results are shown in FIG. 38.

[3] = test system: MEK1; assay: Aβ25-35-induced MEK1 phosphorylation in N2a cells (ELISA); format: cell-based; conditions: concomitant treatment 30-40 min
Experimental: 7. Measure the amount of total and phosphorylated MEK1 in cell lysates of N2a cells, by ELISA using the PathScan total MEK1 sandwich ELISA kit (Cell Signaling TECHNOLOGY) or the PathScan phosoho-MEK1 (Ser217/221) sandwich ELISA kit (Cell Signaling TECHNOLOGY), respectively. 8. Determine the optical density at 450 nm using a microplate reader.
N2a cells were treated concomitantly with Aβ25-35 and TTF for 30 min. Cells were extracted and the levels of phosphorylated or total MEK1 were determined by specific ELISA kits. The results are the mean±SEM of two different experiments for phosphoMEK1 (n=4) (see FIG. 12A) and of one experiment for total MEK1 (n=2) (see FIG. 12B).
N2a cells were treated concomitantly with Aβ25-35 and AcA for 40 min. Cells were extracted and the levels of phosphorylated or total MEK1 were determined by specific ELISA kits. The results are the mean±SEM of one experiment (n=2).
N2a cells were treated concomitantly with A25-35 and memantine for 30 min. Cells were extracted and the levels of phosphorylated or total MEK1 were determined by specific ELISA kits. The results are the mean±SEM of one experiment (n=2).

Structure (SMILES)	effect on H2O2-induced phosphorylation of MEK1 [1]	H2O2 scavenging ability [2]	effect on Aβ25-35-induced phosphorylation of MEK1 [3]	inhibition of H2O2-induced phosphorylation of MEK1 ([1]; astrocytes pretreated 2 h, total MEK1 not affected) [%]	H2O2 scavenged [2] [%]	H2O2 scavenging ability at higher concentrations [2] [%]
CC12CC3CC(C)(C1)CC(N)(C3)C2 [memantine, reference compound]	inhibitory effect	did not have any scavenging ability	down-regulates	–	–	–
C=C1CCC2=C(CO)C(=O)O[C@H]2/C=C(\C)[C@H](OC(C)=O)CC1=O [achillolide A]	inhibitory effect	hydrogen peroxide scavenging ability	does not affect	–	–	–
COc1cc(-c2oc3cc(OC)c(OC)c(O)c3c(=O)c2O)ccc1O [TTF, 3,5,4′-trihydroxy-6,7,3′-trimethoxyflavone]	–	–	significantly inhibited	27	7	≤ 7
O=c1c(O)c(-c2ccc(O)c(O)c2)oc2cc(O)cc(O)c12 [quercetin, 3,3′,4′,5,7-Pentahydroxyflavone, reference compound]	–	–	–	–	57	88
